# What was measured:
# Phaedon cochleariae = assay: Phaedon test (spray application); assay type: in vivo; details: topical, 168 h, spray on Chinese cabbage leaves, after 7 d, read-out: Kill rate in % after 7 d
# Procedure: Phaedon Test (Spray Application) [table] To produce a suitable preparation of active compound, 1 part by weight of active compound is mixed with the stated amounts of solvent and emulsifier, and the concentrate is diluted with emulsifier-containing water to the desired concentration. Chinese cabbage leaves (Brassica pekinensis) are treated by being sprayed with the preparation of the active compound of the desired concentration and are infested with mustard beetle larvae (Phaedon cochleariae) after the leaves have dried.
# Spodoptera frugiperda = Spodoptera frugiperda test (spray application); assay type: in vivo; details: topical, 168 h, spray on maize leaf slices, after 7 d, read-out: Kill rate in % after 7 d
# Procedure: Spodoptera frugiperda Test (Spray Application)
# (§1) To produce a suitable preparation of active compound, 1 part by weight of active compound is mixed with the stated amounts of solvent and emulsifier, and the concentrate is diluted with emulsifier-containing water to the desired concentration.
# Maize leave slices (Zea mays) are treated by being sprayed with the preparation of the active compound of the desired concentration and are infested with caterpillars of the fall army worm (Spodoptera frugiperda) after the leaves have dried.
# (§2) After the specified period of time, the mortality in % is determined. 100% means that all the […] have been killed; 0% means that none of the […] have been killed.
# Myzus persicae = assay: Myzus test (spray application); assay type: in vivo; details: topical, 120 h, spray on Chinese cabbage leaves, after 5 d, read-out: Kill rate in % after 5 d
# Procedure: Myzus Test (Spray Application)
# as §1
# Chinese cabbage leaves (Brassica pekinensis), which are infested by the green peach aphid (Myzus persicae), are treated by being sprayed with the preparation of the active compound of the desired concentration.
# as §2
# Spodoptera exigua = Spodoptera exigua test; assay type: in vivo; details: 168 h, cabbage leaves dipped, after 7 d, read-out: Kill rate in % after 7 d
# Procedure: as §1
# Cabbage leaves (Brassica oleracea) are treated by being dipped into the preparation of active compound of the desired concentration and are populated with caterpillars of the army worm (Spodoptera exigua) while the leaves are still moist.
# (§3) After the desired period of time, the kill in % is determined. 100% means that all caterpillars have been killed; 0% means that none of the caterpillars have been killed.
# Heliothis armigera = Heliothis armigera test; assay type: in vivo; details: Helicoverpa armigera, 168 h, soybean shoots dipped, after 7 d, read-out: Kill rate in % after 7 d
# Procedure: as §1
# Soybean shoots (Glycine max) are treated by being dipped into the preparation of active compound of the desired concentration and are populated with caterpillars of Heliothis armigera while the leaves are still moist.
# as §3
smiles,measurement,setting,value
CCS(=O)(=O)C[C@H](C)NC(=O)c1c(I)cccc1C(=O)Nc1ccc(C(F)(C(F)(F)F)C(F)(F)Br)cc1C (some centres unmarked) [Compound 2],pest or weed control at 20 g/ha,Phaedon cochleariae,100%
CCSC[C@H](C)NC(=O)c1c(I)cccc1C(=O)Nc1ccc(C(F)(C(F)F)C(F)(F)F)cc1Br (some centres unmarked) [Compound 6],pest or weed control at 20 g/ha,Spodoptera frugiperda,100%
CCS(=O)(=O)C[C@H](C)NC(=O)c1c(I)cccc1C(=O)Nc1ccc(C(C(F)F)C(F)(F)F)cc1C (some centres unmarked) [Compound 7],pest or weed control at 100 g/ha,Myzus persicae,100%
CCSC[C@H](C)NC(=O)c1c(I)cccc1C(=O)Nc1ccc(C(F)(C(F)F)C(F)(F)F)cc1F (some centres unmarked) [Compound 8],pest or weed control at 20 ppm,Spodoptera exigua,100%
same,melting point,,138 to 141 °C
"CSC[C@H](C)NC(=O)c1c(I)cccc1C(=O)Nc1ccc(C(F)(C(F)(F)F)C(F)(F)Br)cc1C (stereo partly drawn) [Compound 9, N^1-[4-(2-Bromo-1,2,2-trifluoro-1-trifluoromethyl-ethyl)-2-methyl-phenyl]-3-iodo-N^2-[(S)-1-methyl-2-methylsulfanyl-ethyl]-phthalamide]",pest or weed control at 20 ppm,Heliothis armigera,100%
same,melting point,,124 °C
CSC[C@H](C)NC(=O)c1c(I)cccc1C(=O)Nc1ccc(C(F)(C(F)F)C(F)(F)F)cc1C (some centres unmarked) [Compound 10],pest or weed control at 20 g/ha,Phaedon cochleariae,100%
CSC[C@H](C)NC(=O)c1c(I)cccc1C(=O)Nc1ccc(C(F)(C(F)F)C(F)(F)F)cc1Cl (some centres unmarked) [Compound 12],pest or weed control at 20 g/ha,Spodoptera frugiperda,100%
CCS(=O)(=O)C[C@H](C)NC(=O)c1c(I)cccc1C(=O)Nc1ccc(C(F)(C(F)F)C(F)(F)F)cc1C (some centres unmarked) [Compound 13],pest or weed control at 20 ppm,Spodoptera exigua,100%
same,melting point,,112 °C
CSC[C@H](C)NC(=O)c1c(I)cccc1C(=O)Nc1ccc(C(C(F)F)C(F)(F)F)cc1Cl (some centres unmarked) [Compound 14],pest or weed control at 20 ppm,Heliothis armigera,100%
same,pest or weed control at 100 g/ha,Myzus persicae,100%
CSC[C@H](C)NC(=O)c1c(I)cccc1C(=O)Nc1ccc(C(F)(C(F)F)C(F)(F)F)cc1Br (some centres unmarked) [Compound 15],pest or weed control at 20 g/ha,Phaedon cochleariae,100%
CSC[C@H](C)NC(=O)c1c(I)cccc1C(=O)Nc1ccc(C(F)(C(F)F)C(F)(F)F)cc1F (some centres unmarked) [Compound 16],pest or weed control at 20 g/ha,Spodoptera frugiperda,100%
CSC[C@H](C)NC(=O)c1c(I)cccc1C(=O)Nc1ccc(C(C(F)F)C(F)(F)F)cc1F (some centres unmarked) [Compound 17],pest or weed control at 100 g/ha,Myzus persicae,100%
"Cc1cc(C(F)(C(F)(F)F)C(F)(F)Br)ccc1NC(=O)c1cccc(I)c1C(=O)N[C@@H](C)CS(C)(=O)=O (stereo partly drawn) [Compound 19, N^1-[4-(2-Bromo-1,2,2-trifluoro-1-trifluoromethyl-ethyl)-2-methyl-phenyl]-3-iodo-N^2-[2-methanesulfonyl-(S)-1-methyl-ethyl]-phthalamide]",pest or weed control at 20 ppm,Spodoptera exigua,100%
same,melting point,,128 °C
Cc1cc(C(C(F)F)C(F)(F)F)ccc1NC(=O)c1cccc(I)c1C(=O)N[C@@H](C)CS(C)(=O)=O (some centres unmarked) [Compound 20],pest or weed control at 20 ppm,Heliothis armigera,100%
same,melting point,,123 °C
CSC[C@H](C)NC(=O)c1c(I)cccc1C(=O)Nc1ccc(C(C(F)F)C(F)(F)F)cc1Br (some centres unmarked) [Compound 22],pest or weed control at 20 g/ha,Phaedon cochleariae,100%
CCS(=O)(=O)C[C@H](C)NC(=O)c1c(I)cccc1C(=O)Nc1ccc(C(C(F)F)C(F)(F)F)cc1Cl (some centres unmarked) [Compound 26],pest or weed control at 20 g/ha,Spodoptera frugiperda,100%
same,pest or weed control at 100 g/ha,Myzus persicae,100%
CSC[C@H](C)NC(=O)c1c(I)cccc1C(=O)Nc1ccc(C(F)(C(F)F)C(F)(F)F)cc1C#N (some centres unmarked) [Compound 29],pest or weed control at 20 g/ha,Phaedon cochleariae,83%
C[C@@H](CS(C)(=O)=O)NC(=O)c1c(I)cccc1C(=O)Nc1ccc(C(F)(C(F)F)C(F)(F)F)cc1Br (some centres unmarked) [Compound 30],pest or weed control at 20 g/ha,Spodoptera frugiperda,100%
CSC[C@H](C)NC(=O)c1c(Cl)cccc1C(=O)Nc1ccc(C(F)(C(F)F)C(F)(F)F)cc1C (some centres unmarked) [Compound 39],pest or weed control at 20 g/ha,Spodoptera frugiperda,100%
CSC[C@H](C)NC(=O)c1c(Cl)cccc1C(=O)Nc1ccc(C(C(F)F)C(F)(F)F)cc1C (some centres unmarked) [Compound 40],pest or weed control at 20 ppm,Heliothis armigera,100%
same,melting point,,105 °C
CSC[C@H](C)NC(=O)c1c(Cl)cccc1C(=O)Nc1ccc(C(F)(C(F)F)C(F)(F)F)cc1Cl (some centres unmarked) [Compound 41],pest or weed control at 20 g/ha,Phaedon cochleariae,100%
Cc1cc(C(F)(C(F)(F)F)C(F)(F)Br)ccc1NC(=O)c1cccc(Cl)c1C(=O)N[C@@H](C)CS(C)(=O)=O (some centres unmarked) [Compound 43],pest or weed control at 100 g/ha,Myzus persicae,100%
CCSC[C@H](C)NC(=O)c1c(Cl)cccc1C(=O)Nc1ccc(C(F)(C(F)(F)F)C(F)(F)Br)cc1C (some centres unmarked) [Compound 45],pest or weed control at 20 g/ha,Phaedon cochleariae,100%
C[C@@H](CS(C)(=O)=O)NC(=O)c1c(Cl)cccc1C(=O)Nc1ccc(C(C(F)F)C(F)(F)F)cc1Cl (some centres unmarked) [Compound 48],pest or weed control at 20 ppm,Heliothis armigera,100%
same,melting point,,198 °C
CCS(=O)(=O)C[C@H](C)NC(=O)c1c(Cl)cccc1C(=O)Nc1ccc(C(F)(C(F)(F)F)C(F)(F)Br)cc1C (some centres unmarked) [Compound 49],pest or weed control at 20 g/ha,Spodoptera frugiperda,100%
CCSC[C@H](C)NC(=O)c1c(Cl)cccc1C(=O)Nc1ccc(C(F)(C(F)F)C(F)(F)F)cc1Cl (some centres unmarked) [Compound 50],pest or weed control at 20 g/ha,Phaedon cochleariae,100%
CCSC[C@H](C)NC(=O)c1c(Cl)cccc1C(=O)Nc1ccc(C(C(F)F)C(F)(F)F)cc1Cl (some centres unmarked) [Compound 51],pest or weed control at 100 g/ha,Myzus persicae,100%
CCSC[C@H](C)NC(=O)c1c(Br)cccc1C(=O)Nc1ccc(C(F)(C(F)F)C(F)(F)F)cc1Cl (some centres unmarked) [Compound 53],pest or weed control at 20 ppm,Heliothis armigera,100%
same,melting point,,148 °C
CCS(=O)(=O)C[C@H](C)NC(=O)c1c(Cl)cccc1C(=O)Nc1ccc(C(F)(C(F)F)C(F)(F)F)cc1Cl (some centres unmarked) [Compound 55],pest or weed control at 20 ppm,Heliothis armigera,100%
same,melting point,,175 °C
CCS(=O)(=O)C[C@H](C)NC(=O)c1c(Br)cccc1C(=O)Nc1ccc(C(F)(C(F)(F)F)C(F)(F)Br)cc1C (some centres unmarked) [Compound 57],pest or weed control at 20 g/ha,Phaedon cochleariae,100%
CCS(=O)(=O)C[C@H](C)NC(=O)c1c(Br)cccc1C(=O)Nc1ccc(C(F)(C(F)F)C(F)(F)F)cc1Cl (some centres unmarked) [Compound 58],pest or weed control at 20 ppm,Heliothis armigera,100%
same,melting point,,118 °C
Cc1cc(C(C(F)F)C(F)(F)F)ccc1NC(=O)c1cccc(I)c1C(=O)N[C@@H](C)C[S+](C)[O-] (some centres unmarked) [Compound 60],pest or weed control at 20 g/ha,Phaedon cochleariae,100%
CC[S+]([O-])C[C@H](C)NC(=O)c1c(I)cccc1C(=O)Nc1ccc(C(C(F)F)C(F)(F)F)cc1C (some centres unmarked) [Compound 61],pest or weed control at 20 g/ha,Phaedon cochleariae,100%
Cc1cc(C(C(F)F)C(F)(F)F)ccc1NC(=O)c1cccc(Cl)c1C(=O)N[C@@H](C)C[S+](C)[O-] (some centres unmarked) [Compound 62],pest or weed control at 100 g/ha,Myzus persicae,100%
CSC[C@H](C)NC(=O)c1c(Br)cccc1C(=O)Nc1ccc(C(F)(C(F)(F)F)C(F)(F)Br)cc1C (some centres unmarked) [Compound 63],pest or weed control at 100 g/ha,Myzus persicae,90%
Cc1cc(C(F)(C(F)(F)F)C(F)(F)Br)ccc1NC(=O)c1cccc(Br)c1C(=O)N[C@@H](C)CS(C)(=O)=O (some centres unmarked) [Compound 64],pest or weed control at 20 g/ha,Spodoptera frugiperda,90%
"Cc1cc(C(F)(C(F)(F)F)C(F)(F)Br)ccc1NC(=O)c1cccc(I)c1C(=O)N[C@@H](C)C[S+](C)[O-] (stereo partly drawn) [Compound 65, N^1-[4-(2-Bromo-1,2,2-trifluoro-1-trifluoromethyl-ethyl)-2-methyl-phenyl]-3-iodo-N^2-[2-methanesulfinyl-(S)-1-methyl-ethyl]-phthalamide]",pest or weed control at 200 g/ha,Spodoptera frugiperda; 200 g/ha,100%
Cc1cc(C(F)(C(F)F)C(F)(F)F)ccc1NC(=O)c1cccc(I)c1C(=O)N[C@@H](C)C[S+](C)[O-] (some centres unmarked) [Compound 66],pest or weed control at 20 g/ha,Spodoptera frugiperda,100%
same,pest or weed control at 100 g/ha,Myzus persicae,100%
CCSC[C@H](C)NC(=O)c1c(Br)cccc1C(=O)Nc1ccc(C(F)(C(F)F)C(F)(F)F)cc1Br (some centres unmarked) [Compound 68],pest or weed control at 20 ppm,Heliothis armigera,100%
same,melting point,,140 to 142 °C

# From patent US20090118375A1, “Optically active phthalamides” (priority 2004, published 2009)
